Laboratory results reported in US8772500B2, “TRPV3 modulators” (AbbVie Inc., priority 2011, dated 2014).

Tests used:
human TRPV3 = molecular target: T1, human TRPV3 (Homo sapiens, UniProt Q8NET8); experiment: In vitro antagonism of recombinant human TRPV3 activation (FLIPR Tetra calcium assay, 2-APB as agonist); type: cell-based; details: HEK293 cells stably expressing human TRPV3; 2-APB 80 μM; range class; read-out: IC50 (reported range)
T1 construct: expressed in transfected cells
T1 sequence (Q8NET8 1-790): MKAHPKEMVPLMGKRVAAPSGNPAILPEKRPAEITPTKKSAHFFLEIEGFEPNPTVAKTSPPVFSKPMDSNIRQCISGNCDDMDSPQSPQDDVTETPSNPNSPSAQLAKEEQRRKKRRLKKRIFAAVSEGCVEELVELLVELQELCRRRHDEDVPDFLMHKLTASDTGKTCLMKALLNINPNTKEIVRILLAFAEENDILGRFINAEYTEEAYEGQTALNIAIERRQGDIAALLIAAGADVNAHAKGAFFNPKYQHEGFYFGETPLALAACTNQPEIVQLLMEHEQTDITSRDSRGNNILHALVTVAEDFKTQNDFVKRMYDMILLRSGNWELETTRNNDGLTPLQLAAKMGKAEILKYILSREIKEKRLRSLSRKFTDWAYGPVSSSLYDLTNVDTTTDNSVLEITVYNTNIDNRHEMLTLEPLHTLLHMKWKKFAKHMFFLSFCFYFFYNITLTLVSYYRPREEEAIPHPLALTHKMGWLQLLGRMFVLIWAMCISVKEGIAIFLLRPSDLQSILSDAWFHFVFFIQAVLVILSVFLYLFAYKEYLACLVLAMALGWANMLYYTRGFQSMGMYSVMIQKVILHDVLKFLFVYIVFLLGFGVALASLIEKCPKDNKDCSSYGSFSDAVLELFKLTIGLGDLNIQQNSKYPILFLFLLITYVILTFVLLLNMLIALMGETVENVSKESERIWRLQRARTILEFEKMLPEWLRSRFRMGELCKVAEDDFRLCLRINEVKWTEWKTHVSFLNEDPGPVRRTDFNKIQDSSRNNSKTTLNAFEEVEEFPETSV
Procedure, shortened: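 HEK293 cells stably expressing human TRPV3, loaded with Calcium-4 dye for 90-120 min; compound added 3 min before 2-APB at 80 μM (its EC80). Fluorescence (max minus min) over 10 min expressed as % of maximal 2-APB response without antagonist; IC50 mostly averaged from n≧2 runs.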

[1] = In vitro human microsomal stability assay; type: in vitro ADME
Procedure, shortened: (§1)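 Compounds were incubated at 37 °C with Sprague-Dawley rat liver microsomes (rat assay) or human liver microsomes (human assay) to measure metabolic stability. NADPH was added, including to the time-zero samples.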

[2] = In vitro rat microsomal stability assay; type: in vitro ADME, rat (Sprague-Dawley)
Procedure, shortened: as §1

[3] = Sprague-Dawley, rat, 0.5 h, 0.5 μM, pH 7.4
[4] = 0.5 μM substrate, 0.25 mg/mL microsomal protein, pH 7.4, 37° C., NADPH, 30 minutes

SMILES | IC50 (human TRPV3) | HUMAN MICROSOMAL STABILITY (% REMAINING AFTER 30 MINUTES) ([1]; human, 0.5 h, 0.5 μM, pH 7.4) | RAT MICROSOMAL STABILITY (% REMAINING AFTER 30 MINUTES) [2, 3] | HUMAN MICROSOMAL STABILITY (% REMAINING AFTER 30 MINUTES) [1, 4] | RAT MICROSOMAL STABILITY (% REMAINING AFTER 30 MINUTES) [2, 4]
O[C@H](c1ccccn1)C1(c2ccc(OC(F)(F)F)cc2)CC(F)(F)C1 [Example 128, (S)-{3,3-difluoro-1-[4-(trifluoromethoxy)phenyl]cyclobutyl}(pyridin-2-yl)-methanol] | 50 to 500 nM | 59% | 67% | – | –
COC1(OC)CC(c2ccc(OC(F)(F)F)cc2)(C(O)c2ccccn2)C1 (stereo not drawn) [Example 129, {3,3-dimethoxy-1-[4-(trifluoromethoxy)phenyl]cyclobutyl}(pyridin-2-yl)-methanol] | 50 to 500 nM | 46% | 0.01% | – | –
OC(c1ccccn1)C1(c2ccc(C(F)(F)F)cc2)CC(F)(F)C1 (stereo not drawn) [Example 133, {3,3-difluoro-1-[4-(trifluoromethyl)phenyl]cyclobutyl}(pyridin-2-yl)-methanol] | 50 to 500 nM | 73% | 61% | – | –
OC(c1ccccn1)C1(c2ccc(C(F)(F)F)cn2)CC(F)(F)C1 (stereo not drawn) [Example 137, {3,3-difluoro-1-[5-(trifluoromethyl)pyridin-2-yl]cyclobutyl}(pyridin-2-yl)-methanol] | 1100 to 5000 nM | 77% | >85% | – | –
CN1CCC(c2ccc(OC(F)(F)F)cc2)(C(O)c2ccccn2)CC1 (stereo not drawn) [Example 145, {1-methyl-4-[4-(trifluoromethoxy)phenyl]piperidin-4-yl}(pyridin-2-yl)-methanol] | 1100 to 5000 nM | – | – | 68% | 42%
CN1CCC(c2cccc(OC(F)(F)F)c2)(C(O)c2ccccn2)CC1 (stereo not drawn) [Example 146, {1-methyl-4-[3-(trifluoromethoxy)phenyl]piperidin-4-yl}(pyridin-2-yl)-methanol] | 5100 to 20000 nM | – | – | 84% | 8.9%
OC(c1ccccn1)C1(c2cccc(OC(F)(F)F)c2)CCNCC1 (stereo not drawn) [Example 148, pyridin-2-yl{4-[3-(trifluoromethoxy)phenyl]piperidin-4-yl}methanol] | 1100 to 5000 nM | – | – | >85% | 53%
CN1CCC(c2ccccc2OC(F)(F)F)(C(O)c2ccccn2)CC1 (stereo not drawn) [Example 149, {1-methyl-4-[2-(trifluoromethoxy)phenyl]piperidin-4-yl}(pyridin-2-yl)-methanol] | 5100 to 20000 nM | – | – | >85% | 62%
CC(C)(C)OC(=O)N1CC(c2ccc(C(F)(F)F)cc2)(C(O)c2ccccn2)C1 (stereo not drawn) [Example 153, tert-butyl 3-[hydroxy(pyridin-2-yl)methyl]-3-[4-(trifluoromethyl)phenyl]-azetidine-1-carboxylate] | 5100 to 20000 nM | 49% | 21% | – | –
O[C@H](c1ccccn1)C1(c2ccc(C(F)(F)F)cc2)CC(F)(F)C1 [Example 154, (S)-{3,3-difluoro-1-[4-(trifluoromethyl)phenyl]cyclobutyl}(pyridin-2-yl)-methanol] | 50 to 500 nM | 56% | 78% | – | –
O[C@@H](c1ccccn1)C1(c2ccc(OC(F)(F)F)cc2)CC(F)(F)C1 [Example 159, (R)-{3,3-difluoro-1-[4-(trifluoromethoxy)phenyl]cyclobutyl}(pyridin-2-yl)methanol] | 1100 to 5000 nM | 45% | 65% | – | –
OC(c1ccccn1)C1(c2ccc(C(F)(F)F)cc2)CC2(C1)OCCO2 (stereo not drawn) [Example 161, pyridin-2-yl{2-[4-(trifluoromethyl)phenyl]-5,8-dioxaspiro[3.4]oct-2-yl}-methanol] | 1100 to 5000 nM | 61% | <0.01% | – | –
OC(c1ccccn1)C1(C2CCCCC2)CCC1 (stereo not drawn) [Example 162, (1-cyclohexylcyclobutyl)(pyridin-2-yl)methanol] | 1100 to 5000 nM | 0.02% | <0.01% | – | –
OC(c1ccccn1)C1(C2CCCC2)CCC1 (stereo not drawn) [Example 163, (1-cyclopentylcyclobutyl)(pyridin-2-yl)methanol] | 1100 to 5000 nM | 0.11% | <0.01% | – | –

Further lines, with some results ahead:

IC50 (human TRPV3) | HUMAN MICROSOMAL STABILITY (% REMAINING AFTER 30 MINUTES) ([1]; human, 0.5 h, 0.5 μM, pH 7.4) | RAT MICROSOMAL STABILITY (% REMAINING AFTER 30 MINUTES) [2, 3] | SMILES | HUMAN MICROSOMAL STABILITY (% REMAINING AFTER 30 MINUTES) [1, 4] | RAT MICROSOMAL STABILITY (% REMAINING AFTER 30 MINUTES) [2, 4]
1100 to 5000 nM | 4.0% | <0.01% | Nc1cccnc1C(O)C1(c2ccc(Cl)c(Cl)c2)CCC1 (stereo not drawn) [Example 130, (3-aminopyridin-2-yl) [1-(3,4-dichlorophenyl)cyclobutyl]methanol] | – | –
5100 to 20000 nM | 81% | 72% | OC1CC(c2ccc(OC(F)(F)F)cc2)(C(O)c2ccccn2)C1 [Example 132, (trans)-3-[(S)-hydroxy(pyridin-2-yl)methyl]-3-[4-(trifluoromethoxy)phenyl]-cyclobutanol] | – | –
501 to 1000 nM | 33% | 3.4% | O[C@H](c1ccccn1)[C@@]1(c2ccc(Cl)c(Cl)c2)CCO1 [Example 135, (R)-[(2S)-2-(3,4-dichlorophenyl)oxetan-2-yl](pyridin-2-yl)methanol] | – | –
50 to 500 nM | 24% | 9.5% | O[C@H](c1ccccn1)[C@]1(c2ccc(Cl)c(Cl)c2)CCO1 [Example 136, (R)-[(2R)-2-(3,4-dichlorophenyl)oxetan-2-yl](pyridin-2-yl)methanol] | – | –
501 to 1000 nM | 41% | 18% | OC(c1ccccn1)C1(c2ccc(Cl)c(C(F)(F)F)c2)CC(F)(F)C1 (stereo not drawn) [Example 138, {1-[4-chloro-3-(trifluoromethyl)phenyl]-3,3-difluorocyclobutyl}(pyridin-2-yl)methanol] | – | –
501 to 1000 nM | 41% | 26% | OC(c1ccccn1)C1(c2ccc(F)c(C(F)(F)F)c2)CC(F)(F)C1 (stereo not drawn) [Example 139, {3,3-difluoro-1-[4-fluoro-3-(trifluoromethyl)phenyl]cyclobutyl}(pyridin-2-yl)methanol] | – | –
1100 to 5000 nM | 42% | <0.01% | COC1CC(c2ccc(Cl)c(Cl)c2)(C(O)c2ccccn2)C1 [Example 150, (S)-[cis-1-(3,4-dichlorophenyl)-3-methoxycyclobutyl](pyridin-2-yl)methanol] | – | –
1100 to 5000 nM | 32% | <0.01% | COC1CC(c2ccc(Cl)c(Cl)c2)([C@H](O)c2ccccn2)C1 (stereo partly drawn) [Example 151, (S)-[1-(3,4-dichlorophenyl)-3-methoxycyclobutyl](pyridin-2-yl)methanol] | – | –
5100 to 20000 nM | >85% | >85% | OC(c1ccccn1)C1(c2ccc(C(F)(F)F)cc2)CNC1 (stereo not drawn) [Example 152, pyridin-2-yl{3-[4-(trifluoromethyl)phenyl]azetidin-3-yl}methanol] | – | –
5100 to 20000 nM | >85% | 76% | CN1CC(c2ccc(C(F)(F)F)cc2)(C(O)c2ccccn2)C1 (stereo not drawn) [Example 155, {1-methyl-3-[4-(trifluoromethyl)phenyl]azetidin-3-yl}(pyridin-2-yl)methanol] | – | –
5100 to 20000 nM | >85% | 60% | O=C1CC(c2ccc(C(F)(F)F)cc2)(C(O)c2ccccn2)C1 (stereo not drawn) [Example 160, 3-[hydroxy(pyridin-2-yl)methyl]-3-[4-(trifluoromethyl)phenyl]cyclobutanone] | – | –
